`Cn1cc(NS(=O)(=O)c2ccsc2C(=O)O)cn1` gave a melting point of 239 to 241 °C.
Work on `O=C(O)c1cnn2cc(Br)cnc12` yielded a melting point of 199 to 201 °C.
Compound `N#Cc1cnc(Oc2ccccc2)cn1` has a melting point of 99 to 101 °C.
Compound `c1ccc(-c2nc[nH]n2)nc1` has a melting point of 159 to 161 °C.
`Cc1[nH]ncc1CNc1ccc(O)cc1` showed a melting point of 150 to 152 °C.
Compound `O=Cc1ccc(OCc2ccc(Cl)cc2)cc1` has a melting point of 72 to 74 °C.
For `CCCCS(N)(=O)=O`, the melting point was 43 to 45 °C.
Compound `O=C1CCCc2nc(-c3ccc(F)cc3)sc21` has a melting point of 142 to 144 °C.
In the case of `O=C(CCl)c1ccc2c(c1)CCCC2`, the melting point is reported as 62 to 64 °C.
For `NC(=O)CCc1csc(N)n1`, the melting point was 141 to 143 °C.
Work on `CS(=O)(=O)c1cc(Br)ccc1[N+](=O)[O-]` yielded a melting point of 152 to 154 °C.
`CC(C)=CCSCC(N)C(=O)O` (stereo not given) gave a melting point of 189 to 191 °C.
`O=C(O)c1ccc2c(c1)C(=O)NC2=O` gave a melting point of 267 to 269 °C.
`Cc1cccc(C(=O)Nc2ccccc2C(=O)O)c1` showed a melting point of 182 to 186 °C.
With `O=C(O)c1cccc(S(=O)(=O)Nc2ccc3c(c2)OCO3)c1` the melting point was 249 to 251 °C.
In the case of `O=C1c2ccccc2C(=O)N1c1cnn(Cc2ccccc2)c1`, the melting point is reported as 149 to 151 °C.
Work on `COc1ccc(N)cc1-n1nnnc1C1CC1` yielded a melting point of 161 to 163 °C.
With `O=C(O)Cc1csc(NC(=O)OCC(F)(F)F)n1` the melting point was 182 to 184 °C.
For `O=C(Nc1ccccc1I)C(F)(F)F`, the melting point was 105 to 107 °C.
`Oc1cc(C(F)(F)F)nc(-c2cccnc2)n1` showed a melting point of 277 to 279 °C.
In the case of `Cc1onc2c(=O)[nH]nc(-c3ccccc3)c12`, the melting point is reported as 235 to 237 °C.
With `CCSc1cc(Br)ccc1C=O` the melting point was 50 to 52 °C.
With `CC(C)(C)c1ccc(CCCC(=O)O)cc1` the melting point was 53 to 55 °C.
Work on `CC(Cl)C(=O)NC(C)c1ccc2c(c1)CCCC2` (stereo not given) yielded a melting point of 106 to 108 °C.
Work on `Cc1ccsc1C(=O)Nc1ccc(O)cc1` yielded a melting point of 127 to 129 °C.
In the case of `N#Cc1ccc(C(=O)O)nc1`, the melting point is reported as 210 to 215 °C.
Work on `O=C(CCCl)N(c1ccccc1)C1C=CS(=O)(=O)C1` (stereo not given) yielded a melting point of 122 to 124 °C.
With `CC(C)C(=O)c1ccc2[nH]c(=O)oc2c1` the melting point was 188 to 190 °C.
With `CCOC(=O)/C(C#N)=C\Nc1ccc(F)cc1Cl` the melting point was 168 to 170 °C.
For `O=C(O)CS(=O)(=O)c1cccc(Br)c1`, the melting point was 139 to 141 °C.
Work on `O=C(O)c1cc2ccccc2n1Cc1ccccc1` yielded a melting point of 197 to 199 °C.
Work on `Cc1nc2ccccc2c(=O)n1-c1ccc(Br)cc1` yielded a melting point of 176 to 178 °C.
`CN(C)C(=O)c1csc(C(=O)CCl)c1` gave a melting point of 142 to 144 °C.
Compound `Nc1cnc(-c2ccccc2)nc1` has a melting point of 81 to 83 °C.
In the case of `COc1cccc(NC(=O)CC#N)c1`, the melting point is reported as 154 to 156 °C.
`O=[N+]([O-])c1cc(S(=O)(=O)N2CCCC2)ccc1Cl` gave a melting point of 96 to 100 °C.
Work on `CCOC(=O)c1nc2cc(Cl)ncn2n1` yielded a melting point of 194 to 196 °C.
In the case of `NCC1(O)CCSCC1`, the melting point is reported as 65 to 67 °C.
`O=S(=O)(c1ccc(F)cc1)N1CCCNCC1` showed a melting point of 180 to 182 °C.
For `O=C(O)C(Sc1cc(F)ccc1F)c1ccccc1` (stereo not given), the melting point was 106 to 108 °C.
Compound `O=Cc1cn(-c2ccccc2)nc1-c1cccs1` has a melting point of 90 to 92 °C.
Compound `O=C(Nc1ccccc1C(=O)O)c1ccc(Cl)cc1` has a melting point of 208 to 210 °C.
`O=C(O)c1cc(N2CCOCC2)ccc1[N+](=O)[O-]` showed a melting point of 188 to 192 °C.
`Cc1nn(CCO)c2nc(C3CC3)cc(C(=O)O)c12` showed a melting point of 184 to 186 °C.
Compound `c1ccc(CN2CCNc3ccccc32)cc1` has a melting point of 44 to 46 °C.
With `Oc1cc(Cl)cnc1Br` the melting point was 144 to 146 °C.
Compound `Cc1cc(N)n(-c2cccc(C(F)(F)F)c2)n1` has a melting point of 88 to 92 °C.
`Cn1c(=O)[nH]cc(C(=O)O)c1=O` showed a melting point of 233 to 235 °C.
With `COC(=O)c1cccc(-c2nc(C)cs2)c1` the melting point was 52 to 54 °C.
For `Cc1nn(-c2cccc(Cl)c2)c2ncc(Br)cc12`, the melting point was 114 to 116 °C.
With `Nc1cccc2ccncc12` the melting point was 169 to 171 °C.
With `CCCNS(=O)(=O)c1cccc(C(=O)O)c1` the melting point was 199 to 201 °C.
`CS(=O)(=O)CC(=O)c1ccccc1` showed a melting point of 106 to 108 °C.
With `Nc1ccc(-n2cncn2)c(C(F)(F)F)c1` the melting point was 127 to 129 °C.
In the case of `Nc1ccc(Cl)c(S(N)(=O)=O)c1`, the melting point is reported as 161 to 163 °C.
